Results on 17 compounds are retold here after PubChem BioAssay (NCI).

Structures are written as SMILES.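 Five compound concentrations were applied to cells in 96-well plates for 48 hours; endpoints were derived by simple linear interpolation of the resulting dose-response curve. TGI: total growth inhibition.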

Among the test systems are KM12 colon; T-47D breast; NCI/ADR-RES ovarian; IGROV1 ovarian; HL-60(TB) leukemia; OVCAR-8 ovarian; OVCAR-4 ovarian; LOX IMVI melanoma; SF-268 CNS; OVCAR-3 ovarian; SN12C renal; UACC-62 melanoma; OVCAR-5 ovarian.
Holding throughout (experiment): NCI-60 cell line screen, 48 h

For the compound `Cc1nn(-c2ccccc2)c2c1C(c1cc3ccccc3nc1Cl)NC(=S)N2` (stereo unspecified), the TGI is above 100 µM in the assay with KM12 colon; above 100 µM in the assay on T-47D breast; above 100 µM with NCI/ADR-RES ovarian; 37.6 µM in the assay on IGROV1 ovarian; above 100 µM in the assay on HL-60(TB) leukemia; 82.2 µM in the assay on OVCAR-8 ovarian. In addition, the TGI in the assay on OVCAR-4 ovarian was above 100 µM; with LOX IMVI melanoma, 56.6 µM; in the assay on SF-268 CNS, above 100 µM; in the assay on OVCAR-3 ovarian, above 100 µM; with SN12C renal, above 100 µM; in the assay with UACC-62 melanoma, above 100 µM. Also, the TGI in the assay on OVCAR-5 ovarian was above 100 µM.
Consider `c1ccc(/N=N\Nc2ccc(-c3nc4ccccc4o3)cc2)nc1`, for which the TGI in the assay on KM12 colon is above 100 µM; with T-47D breast, 87.1 µM; in the assay with NCI/ADR-RES ovarian, above 100 µM; in the assay on IGROV1 ovarian, above 100 µM; with HL-60(TB) leukemia, above 100 µM; in the assay on OVCAR-8 ovarian, above 100 µM. Further, the TGI in the assay with OVCAR-4 ovarian, in the assay with LOX IMVI melanoma, in the assay with SF-268 CNS, with OVCAR-3 ovarian, in the assay with SN12C renal and in the assay on UACC-62 melanoma was above 100 µM each time. This compound showed a TGI in the assay with OVCAR-5 ovarian above 100 µM.
As for `O=C1c2ccccc2C(=O)c2c1oc(=O)c1ccccc21`, the TGI came to 12.8 µM in the assay with KM12 colon; 13.9 µM with T-47D breast; 10.2 µM in the assay on NCI/ADR-RES ovarian; 10.4 µM in the assay on IGROV1 ovarian; 1.71 µM in the assay on HL-60(TB) leukemia; 15.1 µM with OVCAR-8 ovarian. Also, the TGI in the assay with OVCAR-4 ovarian was 3.56 µM; with LOX IMVI melanoma, 9.9 µM; in the assay on SF-268 CNS, 19.7 µM; in the assay with OVCAR-3 ovarian, 3.61 µM; in the assay on SN12C renal, 7.91 µM; in the assay on UACC-62 melanoma, 8.36 µM. Moreover, the TGI in the assay with OVCAR-5 ovarian turned out to be 14.4 µM.
In the case of `Clc1ccc2c(c1)CC1C[N+]3=C(CCCC3)C1=C2` (stereo unspecified), the TGI in the assay with KM12 colon, in the assay on T-47D breast, in the assay on NCI/ADR-RES ovarian, in the assay on IGROV1 ovarian, in the assay on HL-60(TB) leukemia and in the assay with OVCAR-8 ovarian was above 100 µM in each case. The TGI with OVCAR-4 ovarian, in the assay with LOX IMVI melanoma, in the assay on SF-268 CNS, in the assay on OVCAR-3 ovarian, in the assay on SN12C renal and with UACC-62 melanoma was above 100 µM each time. Moreover, the TGI in the assay with OVCAR-5 ovarian is above 100 µM.
With `c1nc(SSc2ncnc3nc[nH]c23)c2[nH]cnc2n1`, the TGI in the assay with KM12 colon is above 44.1 µM; in the assay with T-47D breast, above 100 µM; with NCI/ADR-RES ovarian, above 30.5 µM; in the assay on IGROV1 ovarian it was above 100 µM; in the assay on HL-60(TB) leukemia, above 100 µM; in the assay with OVCAR-8 ovarian, above 100 µM. Further, the TGI with OVCAR-4 ovarian is above 100 µM; in the assay on LOX IMVI melanoma, 20.4 µM; in the assay with SF-268 CNS it was above 29.2 µM; in the assay on OVCAR-3 ovarian it was above 33.6 µM; in the assay on SN12C renal, above 73.3 µM; in the assay with UACC-62 melanoma it was 0.0568 µM. The TGI in the assay on OVCAR-5 ovarian is above 65.2 µM.
`O=C1C=CC[C@H](/C=C/C[C@@H](O)C[C@H](O)/C=C/c2ccccc2)O1`: the TGI stood at 24.7 µM with KM12 colon; 33.3 µM in the assay on T-47D breast; 65.3 µM in the assay with NCI/ADR-RES ovarian; 28 µM with IGROV1 ovarian; 17.7 µM in the assay on HL-60(TB) leukemia; 32.9 µM in the assay on OVCAR-8 ovarian. The TGI in the assay on OVCAR-4 ovarian was 28.4 µM; with LOX IMVI melanoma it was 13.3 µM; in the assay with SF-268 CNS, 37.7 µM; with OVCAR-3 ovarian, 23.7 µM; in the assay on SN12C renal it was 26.9 µM; with UACC-62 melanoma, 29.4 µM. For the same compound, the TGI in the assay with OVCAR-5 ovarian was determined as 29.5 µM.
Take `COCC(=O)OC1CCn2c1nc1c2C(=O)C(C)=C(NC(C)=O)C1=N` (stereo unspecified): the TGI in the assay with KM12 colon was 38.2 µM; in the assay on T-47D breast, 6.98 µM; with NCI/ADR-RES ovarian it was 17.6 µM; in the assay with IGROV1 ovarian, 24.2 µM; in the assay with HL-60(TB) leukemia, 4.54 µM; in the assay on OVCAR-8 ovarian, 7.19 µM. For the same compound, the TGI with OVCAR-4 ovarian was found to be 4.89 µM; in the assay with LOX IMVI melanoma, 6.04 µM; in the assay on SF-268 CNS, 10.3 µM; in the assay on OVCAR-3 ovarian, 5.85 µM; with SN12C renal it was 13.4 µM; in the assay with UACC-62 melanoma it was 3.34 µM. Besides, in the assay on OVCAR-5 ovarian, the TGI amounted to 25.3 µM.
For `CC(=O)Nc1ccc(S(=O)(=O)[N-]C2C(=O)c3ccccc3C(=O)C2[n+]2ccccc2)cc1` (stereo unspecified), the TGI in the assay with KM12 colon is 27.9 µM; in the assay on T-47D breast it was above 100 µM; in the assay on NCI/ADR-RES ovarian, 38.8 µM; with IGROV1 ovarian, 30 µM; with HL-60(TB) leukemia, 40.5 µM; in the assay with OVCAR-8 ovarian, 38.3 µM. Further, the TGI in the assay on OVCAR-4 ovarian was 28.9 µM; in the assay on LOX IMVI melanoma, above 100 µM; in the assay on SF-268 CNS, 35.5 µM; with OVCAR-3 ovarian, 32.3 µM; in the assay on SN12C renal, above 100 µM; with UACC-62 melanoma, 28.9 µM. For the same compound, the TGI with OVCAR-5 ovarian worked out at 32.3 µM.
Take `O=Cc1[nH]c(=O)[nH]c(=O)c1CCl`: the TGI in the assay on KM12 colon was above 100 µM; in the assay with T-47D breast, above 100 µM; in the assay with NCI/ADR-RES ovarian it was above 100 µM; with IGROV1 ovarian, above 100 µM; in the assay on HL-60(TB) leukemia, above 72.9 µM; in the assay with OVCAR-8 ovarian, above 100 µM. In addition, the TGI is above 100 µM in the assay on OVCAR-4 ovarian; above 81.7 µM in the assay on LOX IMVI melanoma; above 100 µM in the assay on SF-268 CNS; above 100 µM in the assay on OVCAR-3 ovarian; above 100 µM with SN12C renal; above 100 µM with UACC-62 melanoma. This compound had a TGI in the assay with OVCAR-5 ovarian above 100 µM.
As for `O=C(Nc1ccccc1)Nn1c(-c2cccs2)nc2ccc(I)cc2c1=O`, the TGI with KM12 colon was 94.8 µM; with T-47D breast it was 17.2 µM; with NCI/ADR-RES ovarian, above 100 µM; in the assay on IGROV1 ovarian, 71.7 µM; with HL-60(TB) leukemia it was 21.8 µM; in the assay on OVCAR-8 ovarian, above 100 µM. The TGI with OVCAR-4 ovarian is 90.4 µM; with LOX IMVI melanoma it was 49.1 µM; with SF-268 CNS, above 100 µM; in the assay on OVCAR-3 ovarian, 31.8 µM; with SN12C renal, above 100 µM; in the assay with UACC-62 melanoma it was above 100 µM. In the assay with OVCAR-5 ovarian, this compound yielded a TGI above 100 µM.
With `CC(=O)N1CC[N+](C)(CCCCN2c3ccccc3Sc3cc(N=[N+]=[N-])ccc32)CC1`, the TGI with KM12 colon, with T-47D breast, with NCI/ADR-RES ovarian, in the assay on IGROV1 ovarian, in the assay on HL-60(TB) leukemia and in the assay with OVCAR-8 ovarian was above 100 µM throughout. The TGI with OVCAR-4 ovarian, in the assay on LOX IMVI melanoma, with SF-268 CNS, in the assay on OVCAR-3 ovarian, with SN12C renal and in the assay on UACC-62 melanoma was above 100 µM each time. This compound also showed a TGI in the assay on OVCAR-5 ovarian above 100 µM.
As for `CC(=O)OCC1OC(n2c3c(cc(C#N)c2=S)CCCCCC3)C(OC(C)=O)C(OC(C)=O)C1OC(C)=O` (stereo unspecified), the TGI is above 100 µM in the assay with KM12 colon; 30.4 µM in the assay with T-47D breast; above 100 µM in the assay on NCI/ADR-RES ovarian; above 100 µM with IGROV1 ovarian; above 100 µM in the assay with HL-60(TB) leukemia; above 100 µM in the assay with OVCAR-8 ovarian. Moreover, the TGI was above 100 µM with OVCAR-4 ovarian; 49.8 µM in the assay on LOX IMVI melanoma; above 100 µM in the assay on SF-268 CNS; above 100 µM with OVCAR-3 ovarian; above 100 µM in the assay with SN12C renal; above 100 µM in the assay with UACC-62 melanoma. Further, in the assay on OVCAR-5 ovarian, the TGI was above 100 µM.
For the compound `O=c1[nH]c(=O)n(C2OC(CO)C(O)C2O)cc1OCCc1ccccc1` (stereo unspecified), the TGI in the assay with KM12 colon, in the assay with T-47D breast, in the assay on NCI/ADR-RES ovarian, in the assay on IGROV1 ovarian, in the assay on HL-60(TB) leukemia and in the assay with OVCAR-8 ovarian was above 100 µM in each case. For the same compound, the TGI in the assay on OVCAR-4 ovarian, with LOX IMVI melanoma, with SF-268 CNS, in the assay on OVCAR-3 ovarian, with SN12C renal and with UACC-62 melanoma was above 100 µM throughout. For the same compound, the TGI in the assay on OVCAR-5 ovarian is above 100 µM.
Regarding `CCOC(=O)/C=C(\C(=O)OCC)n1cnc2c(N)ncnc21`, the TGI turned out to be 30.5 µM in the assay with KM12 colon; 14 µM with T-47D breast; 37 µM in the assay on NCI/ADR-RES ovarian; 26.7 µM in the assay on IGROV1 ovarian; 2.78 µM with HL-60(TB) leukemia; 18.1 µM with OVCAR-8 ovarian. Moreover, the TGI was above 48.7 µM in the assay with OVCAR-4 ovarian; 11.9 µM with LOX IMVI melanoma; 37.6 µM with SF-268 CNS; 21.4 µM in the assay on OVCAR-3 ovarian; 10.8 µM in the assay with SN12C renal; 23.8 µM in the assay on UACC-62 melanoma. The same compound came in with a TGI in the assay with OVCAR-5 ovarian of 14 µM.
With `Cc1cc(C)nc(NS(=O)(=O)c2ccc(NNC(=O)c3cccc4c(NNc5ccc(S(=O)(=O)Nc6nc(C)cc(C)n6)cc5)c5ccccc5nc34)cc2)n1`, the TGI in the assay on KM12 colon is 35.6 µM; with T-47D breast, 78.9 µM; in the assay with NCI/ADR-RES ovarian, above 100 µM; in the assay on IGROV1 ovarian it was 57.1 µM; in the assay with HL-60(TB) leukemia it was 47 µM; in the assay with OVCAR-8 ovarian, 43.4 µM. Moreover, the TGI in the assay with OVCAR-4 ovarian was 68 µM; with LOX IMVI melanoma it was 31.3 µM; in the assay on SF-268 CNS it was 61 µM; with OVCAR-3 ovarian, 66.5 µM; in the assay on SN12C renal, above 100 µM; in the assay with UACC-62 melanoma, 58.7 µM. Further, the TGI in the assay on OVCAR-5 ovarian stood at 40.3 µM.
Take `O=C1OC2c3ccccc3C(=O)C2(c2ccccc2)N1c1ccccc1` (stereo unspecified): the TGI with KM12 colon, with T-47D breast, in the assay on NCI/ADR-RES ovarian, in the assay with IGROV1 ovarian, in the assay with HL-60(TB) leukemia and with OVCAR-8 ovarian was above 200 µM in each case. Moreover, the TGI with OVCAR-4 ovarian, with LOX IMVI melanoma, with SF-268 CNS, in the assay on OVCAR-3 ovarian, in the assay on SN12C renal and with UACC-62 melanoma was above 200 µM throughout. In the assay on OVCAR-5 ovarian, this compound returned a TGI above 200 µM.
As for `COc1cc(C=Nc2ccc(S(N)(=O)=O)cc2)cc(OC)c1`, the TGI in the assay with KM12 colon is above 50 µM; in the assay with T-47D breast, above 50 µM; in the assay on NCI/ADR-RES ovarian, above 50 µM; in the assay with IGROV1 ovarian, above 50 µM; in the assay with HL-60(TB) leukemia it was 36.8 µM; in the assay on OVCAR-8 ovarian it was above 50 µM. In addition, the TGI in the assay on OVCAR-4 ovarian, in the assay on LOX IMVI melanoma, in the assay on SF-268 CNS, in the assay on OVCAR-3 ovarian, with SN12C renal and in the assay on UACC-62 melanoma was above 50 µM in each case. The TGI in the assay on OVCAR-5 ovarian was above 50 µM.
